Measurements published in BigSolDB 2.1.

CC1=C(O)C(=O)C(C)O1 (stereo not drawn)
solubility (mole fraction)
Details | 278.15 K | 283.15 K | 288.15 K | 293.15 K | 298.15 K | 303.15 K | 308.15 K | 313.15 K
in 1,4-dioxane | 0.192 | 0.22 | 0.248 | 0.282 | 0.315 | 0.357 | 0.4 | 0.445
in DMF | 0.256 | 0.281 | 0.307 | 0.336 | 0.368 | 0.402 | 0.439 | 0.479
in acetone | 0.127 | 0.151 | 0.177 | 0.209 | 0.244 | 0.284 | 0.329 | 0.381
in acetonitrile | 0.0733 | 0.0896 | 0.11 | 0.134 | 0.164 | 0.202 | 0.248 | 0.303
in chloroform | 0.256 | 0.281 | 0.307 | 0.336 | 0.368 | 0.402 | 0.439 | 0.479
in cyclohexanone | 0.105 | 0.128 | 0.155 | 0.187 | 0.225 | 0.269 | 0.318 | 0.372
in dichloromethane | 0.139 | 0.16 | 0.189 | 0.219 | 0.254 | 0.292 | 0.337 | 0.386
in isopropanol | 0.181 | 0.211 | 0.24 | 0.272 | 0.309 | 0.348 | 0.387 | 0.435
in methyl acetate | 0.139 | 0.16 | 0.189 | 0.219 | 0.254 | 0.292 | 0.337 | 0.386
in n-propyl acetate | 0.139 | 0.16 | 0.189 | 0.219 | 0.254 | 0.292 | 0.337 | 0.386
in sec-butanol | 0.105 | 0.128 | 0.155 | 0.187 | 0.225 | 0.269 | 0.318 | 0.372
